According to patent publication US5981517A, “Androstene derivatives” (priority 1997, dated 1999):
Like-named read-outs stand apart in the source and are kept apart here.

Assays:
[1] = target: T1, rat lung glucocorticoid receptor (Rattus norvegicus, UniProt P06536); experiment: Receptor binding studies ([3H]triamcinolone acetonide displacement); settings: for Relative binding affinity (RBA): with respect to dexamethasone (RBA = 100); for RBA: further receptor binding studies (Table X), dexamethasone = 100, * mean ± SE of 3-5 results
T1 construct: Immediately after resection of the lungs, the tissue was frozen in ice; The cytosol was prepared; from tissue; host or cells: lung cytosol of adrenalectomized male Sprague-Dawley rats
T1 sequence (P06536 1-795): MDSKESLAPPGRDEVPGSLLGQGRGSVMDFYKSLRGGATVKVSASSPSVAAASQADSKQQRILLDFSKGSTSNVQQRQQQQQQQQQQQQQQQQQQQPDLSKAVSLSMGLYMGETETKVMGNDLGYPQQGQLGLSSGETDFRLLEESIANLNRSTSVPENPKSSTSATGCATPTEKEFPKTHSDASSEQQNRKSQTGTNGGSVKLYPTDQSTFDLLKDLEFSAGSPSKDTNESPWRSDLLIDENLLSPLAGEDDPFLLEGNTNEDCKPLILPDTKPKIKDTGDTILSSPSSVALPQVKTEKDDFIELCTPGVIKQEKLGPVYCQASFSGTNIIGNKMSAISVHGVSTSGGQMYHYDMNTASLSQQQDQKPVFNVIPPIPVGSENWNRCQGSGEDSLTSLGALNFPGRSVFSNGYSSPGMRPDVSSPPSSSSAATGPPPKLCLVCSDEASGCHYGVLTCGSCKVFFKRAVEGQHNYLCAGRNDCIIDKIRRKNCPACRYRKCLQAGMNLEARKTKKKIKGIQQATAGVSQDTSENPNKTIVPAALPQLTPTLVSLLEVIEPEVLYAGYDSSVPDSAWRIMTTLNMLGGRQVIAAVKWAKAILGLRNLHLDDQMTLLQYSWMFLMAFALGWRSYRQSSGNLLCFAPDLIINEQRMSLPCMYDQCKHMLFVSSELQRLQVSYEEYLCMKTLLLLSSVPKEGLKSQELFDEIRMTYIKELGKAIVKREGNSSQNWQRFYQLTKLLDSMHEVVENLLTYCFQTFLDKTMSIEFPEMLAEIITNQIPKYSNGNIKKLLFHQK
Procedure: Male Sprague-Dawley rats, each weighing 150 to 200 g, were used 6 days after adrenalectomy. Rats were sacrificed by decapitation. Immediately after resection of the lungs, the tissue was frozen in ice. […] Portions (5 ml) of the cytosol were frozen in liquid nitrogen and stored at -80° C.
The cytosol was thawed in a water bath and diluted with 1 part of incubation buffer containing a 15 mM concentration of diisopropyl fluorophosphate. […] After a 2 hour incubation period at room temperature (24° C.), the unbound steroid was removed by addition of a 2% suspension of activated charcoal in incubation buffer (400 μL). The mixture was incubated for 5 minutes at room temperature and then was centrifuged at about 10,000 g for 3 minutes in the microcentrifuge. The radioactivity (cpm) in the supernatant (400 μL) was determined by liquid scintillation counting.
The data is fitted to the following logistic function:
B=T-T * C^N /(C^N +IC50^N)+NS,
where B=CPM in the presence of competitor, T=CPM in the absence of competitor, C=competitor concentration, N=Hill slope factor, and NS=cpm under non-specific binding conditions.
For the representative compound of the invention B, receptor binding affinity was investigated with and without Δ^1 -cortienic acid in the incubation solution to study the effect of Δ^1 -cortienic acid on the receptor binding.
Further studies to evaluate the relative receptor binding affinities of compounds of the invention, other compounds of formula (VII) hereinabove and well-known anti-inflammatory steroids were undertaken, using the methods described in the RECEPTOR BINDING STUDIES set forth above. […] For comparison purposes, the following compounds having formula (VII) above were also tested: […]

[2] = tested on: forearms of a human volunteer; experiment: Further human vasoconstriction testing, Method 1; format: in vivo
Procedure: The mixtures, in 50 μL amounts, were applied to circular patches (8 mm diameter). After evaporation of ethanol, the patches were applied to the forearms of a human volunteer, and covered with a water impervious film for 3 hr. The intensity of vasoconstriction (scale 0-4) was judged at various time intervals after removal of the patches. The grading scale was as follows: 0, normal skin; 1, slight pallor of indistinct outline; 2, pallor with at least two corners outlined; 3, even pallor with a clear outline of the application sites; 4, very intense pallor. The skin tests (2-4 tests on each compound) were performed on the same person.

[3] = tested on: forearm of a human volunteer; experiment: Human vasoconstriction test; format: in vivo; settings: 10 mM
Procedure: Test compounds (10 mM) were dissolved in ethanol/propylene glycol (9/1) solution, and 50 μL of the mixtures were applied to circular patches, 8 mm in diameter. After ethanol evaporation, the patches were applied to the forearm of a human volunteer, and covered with a water impervious film for 3 hours. The intensity of vasoconstriction was judged 1, 8, 17 and 24 hours after the patches were removed.
The grading scale for the vasoconstriction activity was as follows: 0, normal skin; 1, slight pallor of indistinct outline; 2, pallor with at least two corners outlined; 3, even pallor with a clear outline of the application sites; 4, very intense pallor.

in vitro = in vitro ADME; settings: rat, lung cytosol
Procedure: To determine that the compounds of the invention can be stable during the incubation period, the test compounds A, B, C, and D were investigated for their stabilities at the incubation conditions, which are room temperature and 2 hours, for receptor binding studies. The frozen cytosol which was made for the receptor binding study was thawed in a water bath and diluted with 1 part of incubation buffer (10 mM Tris/HCl, 10 mM sodium molybdate, and 2 mM 1,4-dithiothreitol) containing a 15 mM concentration of enzyme inhibitor, diisopropyl fluorophosphate. Portions (560 μL) of the diluted cytosol were added to centrifuge tubes containing 80 μL portions of blank incubation buffer instead of volume of tracer ([^3 H]triamcinolone acetonide) which would be used in the receptor binding study (RBS), 80 μL of solution of a Δ^1 -cortienic acid (0.1 mM) in buffer (the final concentration of Δ^1 -cortienic acid in the incubation medium was […]), and 80 μL of 100,000 nM of concentrations of test compounds in ethanol to give a final concentration of 10,000 nM. This mixture was kept at room temperature for 2 hours. Samples of 0.1 mL were taken at appropriate time intervals (0, 0.5, 1, 1.5, 2 hours) and were mixed with 0.2 mL of acetonitrile containing 5% DMSO. Each mixture was centrifuged and the supernatant were injected in the HPLC.
Male Sprague-Dawley rats, each weighing 150 to 200 g, were used 6 days after adrenalectomy. Rats were sacrificed by decapitation. Immediately after resection of the lungs, the tissue was frozen in ice. The cytosol was prepared using a slight modification of a previously described method (Dahlberg, 1984); After addition of 6 volumes of ice-cold incubation buffer (10 mM Tris/HCl, 10 mM sodium molybdate, and 2 mM 1,4-dithiothreitol), the tissue was homogenized with the Virtis 45 homogenizer at full speed, for 4 periods of 10 seconds with a 10-second cooling period between each step. The homogenate was centrifuged at 35,000 g for 1 hour at 4° C. in a Beckman ultracentrifuge L8-70M equipped with a T170 rotor. Portions (5 ml) of the cytosol were frozen in liquid nitrogen and stored at -80° C.

[4] = rat lung cytosol, 10 nM [3H]triamcinolone acetonide, with Δ1-cortienic acid, 2 h, 24° C., read-out: IC50
[5] = 24 Hours, 1 hour re-occlusion at 20-21 hours, 0.01 mM
[6] = 24 Hours, 1 hour re-occlusion at 20-21 hours, 0.05 mM
[7] = 24 Hours, 1 hour re-occlusion at 20-21 hours, 0.1 mM
[8] = 24 Hours, 1 hour re-occlusion at 20-21 hours, 0.5 mM

Compound | IC50 [1, 4] [nM] | Relative binding affinity (RBA) ([1]; with Δ1-cortienic acid) | RBA [1] | remaining at 2 h (in vitro) [%] | Vasoconstriction activity ([2]; 3 Hours, 0.01 mM) | Vasoconstriction activity ([2]; 3 Hours, 0.05 mM) | Vasoconstriction activity ([2]; 3 Hours, 0.1 mM) | Vasoconstriction activity ([2]; 3 Hours, 0.5 mM) | Vasoconstriction activity ([2]; 3 Hours, 1 mM) | Vasoconstriction activity ([2]; 3 Hours, 5 mM) | Vasoconstriction activity ([2]; 20 Hours, 0.01 mM) | Vasoconstriction activity ([2]; 20 Hours, 0.05 mM) | Vasoconstriction activity ([2]; 20 Hours, 0.1 mM) | Vasoconstriction activity ([2]; 20 Hours, 0.5 mM) | Vasoconstriction activity ([2]; 20 Hours, 1 mM) | Vasoconstriction activity ([2]; 20 Hours, 5 mM) | Vasoconstriction activity [2, 5] | Vasoconstriction activity [2, 6] | Vasoconstriction activity [2, 7] | Vasoconstriction activity [2, 8] | other results
CC(C)OC(=O)[C@@]1(O)CC[C@H]2[C@@H]3CCC4=CC(=O)C=C[C@]4(C)[C@H]3[C@@H](O)C[C@@]21C [G] | > 2000 | < 1 | – | – | – | – | – | – | – | – | – | – | – | – | – | – | – | – | – | – | –
CC(=O)[C@@]1(O)CC[C@H]2[C@@H]3C[C@H](C)C4=CC(=O)C=C[C@]4(C)[C@@]3(F)[C@@H](O)C[C@@]21C [Fluorometholone, reference compound] | – | – | 136 ± 5 | – | – | – | – | – | – | – | – | – | – | – | – | – | – | – | – | – | –
C[C@@H]1C[C@H]2[C@@H]3CCC4=CC(=O)C=C[C@]4(C)[C@@]3(F)[C@@H](O)C[C@]2(C)[C@@]1(O)C(=O)CO [Dexamethasone, reference compound] | – | – | – | – | – | – | – | – | – | – | – | – | – | – | – | – | – | – | – | – | Vasoconstriction activity ([2]; 3 Hours, 10 mM): 1; Vasoconstriction activity ([2]; 20 Hours, 10 mM): 1; Vasoconstriction activity ([3]; 1 hour after patch removal): 0; Vasoconstriction activity ([3]; 8 hours after patch removal): 1; Vasoconstriction activity ([3]; 17 hours after patch removal): 1; Vasoconstriction activity ([3]; 24 hours after patch removal): 1
CCOC(=O)[C@@]1(OC(=O)C(C)Cl)CC[C@H]2[C@@H]3CCC4=CC(=O)C=C[C@]4(C)[C@H]3[C@@H](O)C[C@@]21C (stereo partly drawn) [Q, ethyl 17α-(α-chloro)propionyloxy-11β-hydroxyandrosta-1,4-dien-3-one-17β-carboxylate] | – | – | 88 | > 90 | 0 | 0 | 0 | 1 | 1 | 3 | 0 | 0 | 0 | 1 | 1 | 1 | 0 | 0 | 1 | 2 | –
CCOC(=O)[C@@]1(OC(=O)CCl)CC[C@H]2[C@@H]3CCC4=CC(=O)C=C[C@]4(C)[C@H]3[C@@H](O)C[C@@]21C [Compound R, ethyl 17α-chloroacetoxy-11β-hydroxyandrosta-1,4-dien-3-one-17β-carboxylate] | – | – | 22 | 30 | 0 | 0 | 0 | 1 | 1 | 1 | 0 | 0 | 0 | 0 | 0 | 0 | 0 | 0 | 0 | 0 | –
COC(=O)[C@@]1(O)CC[C@H]2[C@@H]3CCC4=CC(=O)C=C[C@]4(C)[C@H]3[C@@H](O)C[C@@]21C [E] | – | < 1 | – | – | – | – | – | – | – | – | – | – | – | – | – | – | – | – | – | – | IC50 [1]: > 2000 nM
CC1(C)O[C@@H]2C[C@H]3[C@@H]4CCC5=CC(=O)C=C[C@]5(C)[C@@]4(F)[C@@H](O)C[C@]3(C)[C@]2(C(=O)CO)O1 [Triamcinolone acetonide, reference compound] | – | 628 | 630 | – | – | – | – | – | – | – | – | – | – | – | – | – | – | – | – | – | IC50 [1]: 13 nM
CCOC(=O)[C@@]1(O)CC[C@H]2[C@@H]3CCC4=CC(=O)C=C[C@]4(C)[C@H]3[C@@H](O)C[C@@]21C [F] | > 2000 | < 1 | – | – | – | – | – | – | – | – | – | – | – | – | – | – | – | – | – | – | –
CCOC(=O)[C@@]1(OC(=O)CC)CC[C@H]2[C@@H]3CCC4=CC(=O)C=C[C@]4(C)[C@H]3[C@@H](O)C[C@@]21C [Compound P, reference compound] | – | – | 38 | > 90 | 0 | 0 | 0 | 1 | 2 | 3 | 0 | 0 | 0 | 0 | 1 | 1 | 0 | 0 | 1 | 2 | –
C[C@]12C=CC(=O)C=C1CC[C@@H]1[C@@H]2[C@@H](O)C[C@@]2(C)[C@H]1CC[C@]2(OC(=O)C(Cl)Cl)C(=O)O [H, 17α-dichloroacetoxy-11β-hydroxyandrosta-1,4-dien-3-one-17β-carboxylic acid] | > 2000 | < 2 | – | – | – | – | – | – | – | – | – | – | – | – | – | – | – | – | – | – | –
